Inconclusive results and toxic doses are left out. How the source made its calls: active means survival T/C of 150% or more; inactive means T/C below 125% in these data.
Test system: CD2F1 mice, L1210 leukemia ip, survival T/C
Assay: NCI In Vivo Anticancer Drug Screen. Data for tumor model L1210 Leukemia (intraperitoneal) in CD2F1 (CDF1) mice
Details: higher = longer survival
Procedure, shortened: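 In this screen, transplantable tumors were grown in mice given either the compound or its vehicle. Results were expressed as the treated measurement relative to the control measurement.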

[1] = endpoint: mean survival time, dose: 100.0 mg/kg/injection, schedule: Q04DX003 (ip), vehicle: saline with Tween-80
[2] = endpoint: mean survival time, dose: 200.0 mg/kg/injection, schedule: Q04DX003 (ip), vehicle: saline with Tween-80
[3] = endpoint: mean survival time, dose: 400.0 mg/kg/injection, schedule: Q04DX003 (ip), vehicle: saline with Tween-80
[4] = endpoint: mean survival time, dose: 12.5 mg/kg/injection, schedule: Q01DX005 (ip), vehicle: other
[5] = endpoint: mean survival time, dose: 25.0 mg/kg/injection, schedule: Q01DX005 (ip), vehicle: other
[6] = endpoint: mean survival time, dose: 50.0 mg/kg/injection, schedule: Q01DX005 (ip), vehicle: other
[7] = endpoint: mean survival time, dose: 100.0 mg/kg/injection, schedule: Q01DX005 (ip), vehicle: other
[8] = endpoint: mean survival time, dose: 200.0 mg/kg/injection, schedule: Q01DX005 (ip), vehicle: other
[9] = endpoint: mean survival time, dose: 50.0 mg/kg/injection, schedule: Q04DX002 (ip), vehicle: saline with Tween-80
[10] = endpoint: mean survival time, dose: 100.0 mg/kg/injection, schedule: Q04DX002 (ip), vehicle: saline with Tween-80
[11] = endpoint: mean survival time, dose: 200.0 mg/kg/injection, schedule: Q04DX002 (ip), vehicle: saline with Tween-80
[12] = endpoint: mean survival time, dose: 100.0 mg/kg/injection, schedule: Q04DX003 (ip), vehicle: saline
[13] = endpoint: mean survival time, dose: 200.0 mg/kg/injection, schedule: Q04DX003 (ip), vehicle: saline
[14] = endpoint: mean survival time, dose: 100.0 mg/kg/injection, schedule: Q01DX001 (ip), vehicle: saline with Tween-80
[15] = endpoint: mean survival time, dose: 200.0 mg/kg/injection, schedule: Q01DX001 (ip), vehicle: saline with Tween-80
[16] = endpoint: mean survival time, dose: 400.0 mg/kg/injection, schedule: Q01DX001 (ip), vehicle: saline with Tween-80
[17] = endpoint: mean survival time, dose: 100.0 mg/kg/injection, schedule: Q01DX009 (ip), vehicle: saline with Tween-80
[18] = endpoint: mean survival time, dose: 200.0 mg/kg/injection, schedule: Q01DX009 (ip), vehicle: saline with Tween-80
[19] = endpoint: mean survival time, dose: 400.0 mg/kg/injection, schedule: Q01DX009 (ip), vehicle: saline with Tween-80

Measured: T/C

c1ccc(-c2nn(-c3ccccc3)[n+](-c3ccccc3)n2)cc1
inactive: endpoint: mean survival time, dose: 1.25 mg/kg/injection, schedule: Q01DX009 (ip), vehicle: saline with Tween-80 100 % of control | endpoint: mean survival time, dose: 2.5 mg/kg/injection, schedule: Q01DX009 (ip), vehicle: saline with Tween-80 100 % of control | endpoint: mean survival time, dose: 5.0 mg/kg/injection, schedule: Q01DX009 (ip), vehicle: saline with Tween-80 104 % of control | endpoint: mean survival time, dose: 5.0 mg/kg/injection, schedule: Q04DX003 (ip), vehicle: saline 95 % of control

OC(c1ccccc1)(c1ccccc1)c1ccccc1
inactive: [1] 101 % of control | [2] 98 % of control | [3] 98 % of control

CSc1nccc2c1nnn2C1OC(CO)C(O)C1O (stereo not drawn)
inactive: [4] 101 % of control | [5] 101 % of control | [6] 97 % of control | [7] 101 % of control | [8] 100 % of control

CN1C(=O)C(C(O)(c2ccccc2)c2ccccc2)C1c1ccccc1 (stereo not drawn)
inactive: [9] 96 % of control | [10] 96 % of control | [11] 96 % of control

O=P(O)(O)c1ccccc1 (tested in a mixture with another compound)
inactive: [12] 100 % of control | [13] 91 % of control | endpoint: mean survival time, dose: 400.0 mg/kg/injection, schedule: Q04DX003 (ip), vehicle: saline 95 % of control

CCC(CCc1ccc(OC)c(OC)c1)C(=O)O (stereo not drawn)
inactive: [10] 109 % of control | [11] 102 % of control | endpoint: mean survival time, dose: 400.0 mg/kg/injection, schedule: Q04DX002 (ip), vehicle: saline with Tween-80 98 % of control

O=C(O)CCC(=O)NNC(=O)c1cccnc1
inactive: endpoint: mean survival time, dose: 25.0 mg/kg/injection, schedule: Q04DX002 (ip), vehicle: saline with Tween-80 107 % of control | [9] 104 % of control | [14] 106 % of control | [10] 107 % of control | [15] 106 % of control | [16] 98 % of control

CSc1ncnc2c1c1c(N)ncnc1n2C1OC(CO)C(O)C1O (stereo not drawn)
inactive: [4] 107 % of control | [5] 101 % of control | [6] 95 % of control | [7] 103 % of control | [8] 109 % of control

CC1(C)OCC(C2OC(On3nnc4ccc(Cl)cc43)C3OC(C)(C)OC23)O1 (stereo not drawn)
inactive: endpoint: mean survival time, dose: 12.5 mg/kg/injection, schedule: Q01DX005 (ip), vehicle: distilled water + Tween-80 98 % of control | endpoint: mean survival time, dose: 25.0 mg/kg/injection, schedule: Q01DX005 (ip), vehicle: distilled water + Tween-80 96 % of control | endpoint: mean survival time, dose: 50.0 mg/kg/injection, schedule: Q01DX005 (ip), vehicle: distilled water + Tween-80 105 % of control | endpoint: mean survival time, dose: 100.0 mg/kg/injection, schedule: Q01DX005 (ip), vehicle: distilled water + Tween-80 96 % of control | endpoint: mean survival time, dose: 200.0 mg/kg/injection, schedule: Q01DX005 (ip), vehicle: distilled water + Tween-80 105 % of control

N#CC(/C=C/c1ccccc1)Nc1ccccc1C(N)=O (stereo not drawn)
inactive: endpoint: mean survival time, dose: 100.0 mg/kg/injection, schedule: Q04DX003 (ip), vehicle: saline sonified 97 % of control | endpoint: mean survival time, dose: 200.0 mg/kg/injection, schedule: Q04DX003 (ip), vehicle: saline sonified 97 % of control | endpoint: mean survival time, dose: 400.0 mg/kg/injection, schedule: Q04DX003 (ip), vehicle: saline sonified 97 % of control

COC(=O)c1cc(NS(=O)(=O)c2ccc(N)c([N+](=O)[O-])c2)cc(C(=O)OC)c1
inactive: [17] 98 % of control | [18] 95 % of control | [19] 96 % of control

CCOc1cc(/C=N/NC(=O)C(O)c2ccccc2)ccc1O (stereo not drawn)
inactive: [17] 95 % of control | [18] 103 % of control | [19] 101 % of control

Cc1cc(N2CCCN(C)CC2)nc(/N=C(\N)Nc2ccc(Cl)c(Cl)c2)n1
inactive: [1] 88 % of control

CN(C)c1cccc(C(C)(C)C)n1
inactive: endpoint: mean survival time, dose: 12.5 mg/kg/injection, schedule: Q04DX002 (ip), vehicle: saline 98 % of control | endpoint: mean survival time, dose: 25.0 mg/kg/injection, schedule: Q04DX002 (ip), vehicle: saline 106 % of control | endpoint: mean survival time, dose: 50.0 mg/kg/injection, schedule: Q04DX002 (ip), vehicle: saline 95 % of control

NNC(=O)C1CC2CCC1C2 (stereo not drawn)
inactive: endpoint: mean survival time, dose: 50.0 mg/kg/injection, schedule: Q01DX009 (ip), vehicle: saline 107 % of control | endpoint: mean survival time, dose: 100.0 mg/kg/injection, schedule: Q01DX009 (ip), vehicle: saline 109 % of control | [12] 97 % of control | endpoint: mean survival time, dose: 200.0 mg/kg/injection, schedule: Q01DX009 (ip), vehicle: saline 105 % of control | [13] 114 % of control

O=[N+]([O-])c1ccc(C(Cl)S(=O)(=O)c2ccccc2)cc1 (stereo not drawn)
inactive: endpoint: mean survival time, dose: 100.0 mg/kg/injection, schedule: Q01DX009 (ip), vehicle: Klucel (hydroxypropylcellulose) (HPC) 98 % of control | endpoint: mean survival time, dose: 200.0 mg/kg/injection, schedule: Q01DX009 (ip), vehicle: Klucel (hydroxypropylcellulose) (HPC) 92 % of control | endpoint: mean survival time, dose: 400.0 mg/kg/injection, schedule: Q01DX009 (ip), vehicle: Klucel (hydroxypropylcellulose) (HPC) 110 % of control

Nc1c(C(=O)NOCc2ccccc2)ncn1C1CCCC1
inactive: endpoint: mean survival time, dose: 50.0 mg/kg/injection, schedule: Q01DX001 (ip), vehicle: other 104 % of control | endpoint: mean survival time, dose: 100.0 mg/kg/injection, schedule: Q01DX001 (ip), vehicle: other 102 % of control

COc1ccc(/C=C/c2ccc([N+](=O)[O-])cc2)cc1
inactive: [1] 102 % of control | [2] 100 % of control | [3] 100 % of control

O=C1NC(=S)S/C1=C\c1ccc(Cl)c(Cl)c1
inactive: [1] 106 % of control | [2] 94 % of control | [3] 97 % of control

Nc1cc2nc3ccccc3sc-2cc1=O
inactive: endpoint: mean survival time, dose: 50.0 mg/kg/injection, schedule: Q01DX009 (ip), vehicle: saline with Tween-80 102 % of control | [17] 102 % of control | [18] 102 % of control | [19] 89 % of control

O=c1[nH]c(=O)n(C2OC3COC2C3O)cc1F (stereo not drawn)
inactive: endpoint: median survival time, dose: 12.5 mg/kg/injection, schedule: Q01DX005 (ip), vehicle: saline with Tween-80 101 % of control | endpoint: median survival time, dose: 25.0 mg/kg/injection, schedule: Q01DX005 (ip), vehicle: saline with Tween-80 106 % of control | endpoint: median survival time, dose: 50.0 mg/kg/injection, schedule: Q01DX005 (ip), vehicle: saline with Tween-80 102 % of control | endpoint: median survival time, dose: 100.0 mg/kg/injection, schedule: Q01DX005 (ip), vehicle: saline with Tween-80 97 % of control | endpoint: median survival time, dose: 200.0 mg/kg/injection, schedule: Q01DX005 (ip), vehicle: saline with Tween-80 96 % of control

CCOC(=O)COc1ccc(OC)cc1C=O
inactive: [14] 93 % of control | [15] 93 % of control | [16] 97 % of control
